Columns and labels:
CDK2/Cyclin E1 = CDK2/Cyclin E1 (Homo sapiens, UniProt P24941); assay: CDK2/Cyclin E1 TR-FRET biochemical assay, 0.060 mM ATP; settings: 0.15 μM Rb (Ser780)-biotin substrate, 120 min reaction, Table 1
Experimental: (§1) Compounds disclosed herein were tested for inhibition of CDK2/Cyclin E1 or CDK1/Cyclin B1 kinase in an assay based on the time-resolved fluorescence-resonance energy transfer (TR-FRET) methodology. The assay was carried out in 384-well low volume black plates in a reaction mixture containing CDK2/Cyclin E1 or CDK1/Cyclin B1, 0.060 mM ATP for CDK2/Cyclin E1 or 0.015 mM ATP for CDK1/Cyclin B1, 0.15 μM Rb (Ser780)-biotin substrate and 0-10 μM compound in buffer containing 50 mM HEPES pH7.0, 0.02% NaN3, 0.01% BSA, 0.1 mM Orthovanadate, 50 mM MgCl2, 1 mM DTT and 0.005% Tween-20. The kinase was incubated with compound for 60 minutes at room temperature and the reaction was initiated by the addition of ATP and Rb (Ser780)-biotin substrate. After reaction at room temperature for 120 minutes, an equal volume of stop/detection solution was added according to the manufacture's instruction (Cisbio Bioassays). The stop/detection solution contained Streptavidin-XL665 and Anti-pRb (Ser780) mAb-Eu Cryptate in Detection buffer (Cisbio Bioassays). Plates were incubated at room temperature for 60 minutes, and the TR-FRET signals (ex337 nm, em665 nm/620 nm) were recorded on a PHERAstar FSX plate reader (BMG Labtech). The inhibition percentage of CDK2/Cyclin E1 or CDK1/Cyclin B1 kinase activity in presence of increasing concentrations of compounds was calculated based on the ratio of fluorescence at 665 nm to that at 620 nm. The IC50 for each compound was derived from fitting the data to the four-parameter logistic equation by Dotmatics.

CDK1/Cyclin B1 = CDK1/Cyclin B1 (Homo sapiens, UniProt P06493); assay: CDK1/Cyclin B1 TR-FRET biochemical assay, 0.015 mM ATP; settings: 0.15 μM Rb (Ser780)-biotin substrate, 120 min reaction, Table 1
CDK1/Cyclin B1, sequence (P06493 whole entry): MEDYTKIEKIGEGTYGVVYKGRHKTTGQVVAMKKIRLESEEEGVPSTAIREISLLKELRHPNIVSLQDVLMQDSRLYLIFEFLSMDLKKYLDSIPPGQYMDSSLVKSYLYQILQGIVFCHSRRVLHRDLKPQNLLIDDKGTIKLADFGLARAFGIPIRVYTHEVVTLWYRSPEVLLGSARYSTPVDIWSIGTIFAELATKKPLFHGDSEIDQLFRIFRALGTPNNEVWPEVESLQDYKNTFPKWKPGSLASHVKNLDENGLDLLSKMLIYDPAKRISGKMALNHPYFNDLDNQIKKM
CDK1/Cyclin B1, sequence (P14635 whole entry partner): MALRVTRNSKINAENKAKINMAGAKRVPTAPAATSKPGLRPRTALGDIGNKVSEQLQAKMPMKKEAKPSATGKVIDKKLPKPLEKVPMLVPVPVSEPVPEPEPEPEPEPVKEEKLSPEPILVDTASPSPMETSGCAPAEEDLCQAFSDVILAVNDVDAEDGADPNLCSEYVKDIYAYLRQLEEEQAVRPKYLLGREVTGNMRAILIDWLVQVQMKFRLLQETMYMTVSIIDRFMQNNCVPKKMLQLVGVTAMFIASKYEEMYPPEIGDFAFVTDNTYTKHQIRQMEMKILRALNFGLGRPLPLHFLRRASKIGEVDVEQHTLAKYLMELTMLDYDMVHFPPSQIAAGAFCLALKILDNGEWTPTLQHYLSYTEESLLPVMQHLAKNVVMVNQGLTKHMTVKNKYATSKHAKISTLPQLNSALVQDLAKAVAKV
Experimental: as §1

For `CC1(C)NC(=O)N(C2CCC(c3cc(Nc4ccc5c(c4F)CNS5(=O)=O)n[nH]3)C2)C1=O` (single isomer, unassigned) [Example 84a, cis-3-(3-(3-((4-fluoro-1,1-dioxido-2,3-dihydrobenzo[d]isothiazol-5-yl)amino)-1H-pyrazol-5-yl)cyclopentyl)-5,5-dimethylimidazolidine-2,4-dione], the IC50 (CDK2/Cyclin E1) was 7.6 nM and the IC50 (CDK1/Cyclin B1) was 237 nM.

In the case of `O=c1c2ccncc2cnn1[C@H]1CC[C@@H](c2cc(Nc3ccc4c(c3F)CNS4(=O)=O)n[nH]2)C1` (relative stereo) [Example 34, cis-2-(3-(3-((4-fluoro-1,1-dioxido-2,3-dihydrobenzo[d]isothiazol-5-yl)amino)-1H-pyrazol-5-yl)cyclopentyl)pyrido[3,4-d]pyridazin-1 (2H)-one], the IC50 (CDK2/Cyclin E1) is reported as 63 nM and the IC50 (CDK1/Cyclin B1) is reported as 1550 nM.

Work on `Cc1cc(O[C@@H]2CC[C@H](c3cc(Nc4ccc5c(c4F)CNS5(=O)=O)n[nH]3)C2)[nH]n1` (relative stereo) [Example 65, cis-4-fluoro-5-((5-(3-((3-methyl-1H-pyrazol-5-yl)oxy)cyclopentyl)-1H-pyrazol-3-yl)amino)-2,3-dihydrobenzo[d]isothiazole 1,1-dioxide] yielded an IC50 (CDK2/Cyclin E1) of 70 nM and an IC50 (CDK1/Cyclin B1) of 1360 nM.

In the case of `O=S1(=O)NCc2c1ccc(Nc1cc([C@H]3CC[C@@H](Oc4ccon4)C3)[nH]n1)c2F` (relative stereo) [Example 48, cis-4-fluoro-5-((5-(3-(isoxazol-3-yloxy)cyclopentyl)-1H-pyrazol-3-yl)amino)-2,3-dihydrobenzo[d]isothiazole 1,1-dioxide], the IC50 (CDK2/Cyclin E1) is reported as 38 nM and the IC50 (CDK1/Cyclin B1) is reported as 425 nM.

`CC(C)c1csnc1O[C@@H]1CC[C@H](c2cc(Nc3ccc4c(c3F)CNS4(=O)=O)n[nH]2)C1` (relative stereo) [Example 55, cis-4-fluoro-5-((5-(3-((4-isopropylisothiazol-3-yl)oxy)cyclopentyl)-1H-pyrazol-3-yl)amino)-2,3-dihydrobenzo[d]isothiazole 1,1-dioxide] gave an IC50 (CDK2/Cyclin E1) of 14 nM and an IC50 (CDK1/Cyclin B1) of 486 nM.

`CN1C(=O)N([C@H]2CC[C@@H](c3cc(Nc4ccc5c(c4F)CNS5(=O)=O)n[nH]3)C2)C(=O)C1(C)C` (relative stereo) [Example 86, cis-3-(3-(3-((4-fluoro-1,1-dioxido-2,3-dihydrobenzo[d]isothiazol-5-yl)amino)-1H-pyrazol-5-yl)cyclopentyl)-1,5,5-trimethylimidazolidine-2,4-dione] was tested, and the IC50 (CDK2/Cyclin E1) was 73 nM and the IC50 (CDK1/Cyclin B1) was 1340 nM.

In the case of `O=S1(=O)Cc2cc(Nc3cc(C4CCC(c5ncc(CO)o5)C4)[nH]n3)ccc2N1` (centres unmarked) [Example 134, 5-((5-(3-(5-(hydroxymethyl)oxazol-2-yl)cyclopentyl)-1H-pyrazol-3-yl)amino)-1,3-dihydrobenzo[c]isothiazole 2,2-dioxide], the IC50 (CDK2/Cyclin E1) is reported as 41 nM and the IC50 (CDK1/Cyclin B1) is reported as 1110 nM.

With `O=S1(=O)NCc2c1ccc(Nc1cc(C3CCC(c4ncc(CO)o4)C3)[nH]n1)c2F` (centres unmarked) [Example 93, 4-fluoro-5-((5-(3-(5-(hydroxymethyl)oxazol-2-yl)cyclopentyl)-1H-pyrazol-3-yl)amino)-2,3-dihydrobenzo[d]isothiazole 1,1-dioxide] the IC50 (CDK2/Cyclin E1) was 70 nM and the IC50 (CDK1/Cyclin B1) was 1760 nM.

`O=c1c(C2CC2)ccnn1[C@H]1CC[C@@H](c2cc(Nc3ccc4c(c3F)CNS4(=O)=O)n[nH]2)C1` (relative stereo) [Example 28, cis-4-cyclopropyl-2-(3-(3-((4-fluoro-1,1-dioxido-2,3-dihydrobenzo[d]isothiazol-5-yl)amino)-1H-pyrazol-5-yl)cyclopentyl)pyridazin-3 (2H)-one] showed an IC50 (CDK2/Cyclin E1) of 130 nM and an IC50 (CDK1/Cyclin B1) of 1240 nM.

With `CCc1cnc(C2CCC(c3cc(Nc4ccc5c(c4F)CS(=O)(=O)N5)n[nH]3)C2)o1` (centres unmarked) [Example 144, 5-((5-(3-(5-ethyloxazol-2-yl)cyclopentyl)-1H-pyrazol-3-yl)amino)-4-fluoro-1,3-dihydrobenzo[c]isothiazole 2,2-dioxide] the IC50 (CDK2/Cyclin E1) was 16 nM and the IC50 (CDK1/Cyclin B1) was 334 nM.

For `O=S1(=O)NCc2c1ccc(Nc1cc([C@H]3CC[C@@H](Oc4ccnn4-c4ccccc4)C3)[nH]n1)c2F` (relative stereo) [Example 70, (cis)-4-fluoro-5-((5-(3-((1-phenyl-1H-pyrazol-5-yl)oxy)cyclopentyl)-1H-pyrazol-3-yl)amino)-2,3-dihydrobenzo[d]isothiazole 1,1-dioxide], the IC50 (CDK2/Cyclin E1) was > 10000 nM and the IC50 (CDK1/Cyclin B1) was > 10000 nM.

With `O=S1(=O)NCc2c1ccc(Nc1cc([C@H]3CC[C@@H](Oc4cccnn4)C3)[nH]n1)c2F` (relative stereo) [Example 22, cis-4-fluoro-5-((5-(3-(pyridazin-3-yloxy)cyclopentyl)-1H-pyrazol-3-yl)amino)-2,3-dihydrobenzo[d]isothiazole 1,1-dioxide] the IC50 (CDK2/Cyclin E1) was 43 nM and the IC50 (CDK1/Cyclin B1) was 239 nM.

In the case of `CC(C)(C)c1ccnc(O[C@@H]2CC[C@H](c3cc(Nc4ccc5c(c4F)CNS5(=O)=O)n[nH]3)C2)c1` (relative stereo) [Example 47, cis-5-((5-(3-((4-(tert-butyl)pyridin-2-yl)oxy)cyclopentyl)-1H-pyrazol-3-yl)amino)-4-fluoro-2,3-dihydrobenzo[d]isothiazole 1,1-dioxide], the IC50 (CDK2/Cyclin E1) is reported as 3440 nM and the IC50 (CDK1/Cyclin B1) is reported as > 10000 nM.

In the case of `O=S1(=O)NCc2c1ccc(Nc1cc([C@H]3CC[C@@H](Oc4nscc4C4CC4)C3)[nH]n1)c2F` (relative stereo) [Example 53, cis-5-((5-(3-((4-cyclopropylisothiazol-3-yl)oxy)cyclopentyl)-1H-pyrazol-3-yl)amino)-4-fluoro-2,3-dihydrobenzo[d]isothiazole 1,1-dioxide], the IC50 (CDK2/Cyclin E1) is reported as 4.1 nM and the IC50 (CDK1/Cyclin B1) is reported as 118 nM.

For `O=S1(=O)NCc2c1ccc(Nc1cc([C@H]3CC[C@@H](Oc4nnccc4-c4ccccc4)C3)[nH]n1)c2F` (relative stereo) [Example 31, cis-4-fluoro-5-((5-(3-((4-phenylpyridazin-3-yl)oxy)cyclopentyl)-1H-pyrazol-3-yl)amino)-2,3-dihydrobenzo[d]isothiazole 1,1-dioxide], the IC50 (CDK2/Cyclin E1) was 8.5 nM and the IC50 (CDK1/Cyclin B1) was 73 nM.

Molecule `CC(C)(C)n1cnnc1O[C@@H]1CC[C@H](c2cc(Nc3ccc4c(c3F)CNS4(=O)=O)n[nH]2)C1` (relative stereo) [Example 59, (cis)-5-((5-(3-((4-(tert-butyl)-4H-1,2,4-triazol-3-yl)oxy)cyclopentyl)-1H-pyrazol-3-yl)amino)-4-fluoro-2,3-dihydrobenzo[d]isothiazole 1,1-dioxide] has an IC50 (CDK2/Cyclin E1) of 7.6 nM and an IC50 (CDK1/Cyclin B1) of 556 nM.

`CC1(C)NC(=O)N(C2CCC(c3cc(Nc4ccc5c(c4F)CNS5(=O)=O)n[nH]3)C2)C1=O` (single isomer, unassigned) [Example 84b, cis-3-(3-(3-((4-fluoro-1,1-dioxido-2,3-dihydrobenzo[d]isothiazol-5-yl)amino)-1H-pyrazol-5-yl)cyclopentyl)-5,5-dimethylimidazolidine-2,4-dione] gave an IC50 (CDK2/Cyclin E1) of 14 nM and an IC50 (CDK1/Cyclin B1) of 142 nM.

Molecule `Cn1nccc1O[C@@H]1CC[C@H](c2cc(Nc3ccc4c(c3F)CNS4(=O)=O)n[nH]2)C1` (relative stereo) [Example 63, cis-4-fluoro-5-((5-(3-((1-methyl-1H-pyrazol-5-yl)oxy)cyclopentyl)-1H-pyrazol-3-yl)amino)-2,3-dihydrobenzo[d]isothiazole 1,1-dioxide] has an IC50 (CDK2/Cyclin E1) of 90 nM and an IC50 (CDK1/Cyclin B1) of 3120 nM.

With `Cc1ccnnc1O[C@@H]1CC[C@H](c2cc(Nc3ccc4c(c3F)CNS4(=O)=O)n[nH]2)C1` (relative stereo) [Example 24, cis-4-fluoro-5-((5-(3-((4-methylpyridazin-3-yl)oxy)cyclopentyl)-1H-pyrazol-3-yl)amino)-2,3-dihydrobenzo[d]isothiazole 1,1-dioxide] the IC50 (CDK2/Cyclin E1) was 5.7 nM and the IC50 (CDK1/Cyclin B1) was 49 nM.

`O=S1(=O)NCc2c1ccc(Nc1cc([C@H]3CC[C@@H](Oc4cnccc4C4CC4)C3)[nH]n1)c2F` (relative stereo) [Example 41, cis-5-((5-(3-((4-cyclopropylpyridin-3-yl)oxy)cyclopentyl)-1H-pyrazol-3-yl)amino)-4-fluoro-2,3-dihydrobenzo[d]isothiazole 1,1-dioxide] was tested, and the IC50 (CDK2/Cyclin E1) was 33 nM and the IC50 (CDK1/Cyclin B1) was 474 nM.

`CC1(C)CN([C@H]2CC[C@@H](c3cc(Nc4ccc5c(c4F)CNS5(=O)=O)n[nH]3)C2)C(=O)N1` (relative stereo) [Example 85, cis-1-(3-(3-((4-fluoro-1,1-dioxido-2,3-dihydrobenzo[d]isothiazol-5-yl)amino)-1H-pyrazol-5-yl)cyclopentyl)-4,4-dimethylimidazolidin-2-one] was tested, and the IC50 (CDK2/Cyclin E1) was 31 nM and the IC50 (CDK1/Cyclin B1) was 289 nM.

In the case of `CC(C)n1cc(O[C@@H]2CC[C@H](c3cc(Nc4ccc5c(c4F)CNS5(=O)=O)n[nH]3)C2)cn1` (relative stereo) [Example 78, cis-4-fluoro-5-((5-(3-((1-isopropyl-1H-pyrazol-4-yl)oxy)cyclopentyl)-1H-pyrazol-3-yl)amino)-2,3-dihydrobenzo[d]isothiazole 1,1-dioxide], the IC50 (CDK2/Cyclin E1) is reported as 306 nM and the IC50 (CDK1/Cyclin B1) is reported as > 10000 nM.

Reference: patent publication US20260200897A1, “4-((5-(3-(4-(PYRIDIN-2-YL)CYCLOPENTYL)-1H-PYRAZOL-3-YL)AMINO)-BENZENESULFONAMIDE DERIVATIVES AND SIMILAR COMPOUNDS AS CDK INHIBITORS FOR THE TREATMENT OF CANCER” (BeOne Medicines I GmbH, priority 2023, published 2026)
